Like-named read-outs stand apart in the source and are kept apart here.
Key:
[1] = tested on: thyroid hormone receptor (endogenous TRα and TRβ); experiment: GH3-TRE-Ag primary qHTS, luciferase reporter, agonist mode (TOX21_TR_LUC_GH3_Agonist, aeid 803); type: cell-based, rat; settings: for GH3-TRE-Ag AC50 hitc: hit call from tcpl; for AC50: read-out: GH3-TRE-Ag AC50
[2] = Global cytotoxicity: eighteen Tox21 cell viability assays; type: cell-based
[3] = tested on: Tox21 cell viability assays (different cell types); experiment: as above; type: cell-based; settings: for GLOBAL CYTOTOXICITY cytotox.number_Active: # active of 18 total Tox21 viability assays; for GLOBAL CYTOTOXICITY cytotox.median: median over Tox21 viability assays
human RXRα = biological target: T1, human RXRα (Homo sapiens, UniProt P19793); experiment: RXRa-bla-Ag mammalian one-hybrid beta-lactamase assay (TOX21_TR_RXR_BLA_Agonist_Followup_ratio, aeid 2253); type: cell-based; settings: for AC50: HEK 293T one-hybrid, agonist mode, inactive set to 1,000, read-out: RXRa-bla-Ag AC50; for tr-followup-rxr-bla-agonist-1 hitc: hit call from tcpl
T1 construct: host or cells: GeneBLAzer UAS-bla HEK 293T
T1 sequence (P19793 227-458 limits assumed): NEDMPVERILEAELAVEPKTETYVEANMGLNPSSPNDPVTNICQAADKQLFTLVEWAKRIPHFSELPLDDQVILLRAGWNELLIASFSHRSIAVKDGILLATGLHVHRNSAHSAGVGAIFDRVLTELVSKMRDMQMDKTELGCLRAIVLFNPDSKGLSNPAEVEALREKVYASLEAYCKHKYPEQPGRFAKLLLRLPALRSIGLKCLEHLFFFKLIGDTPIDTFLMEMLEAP

[4] = biological target: T2, human TRβ ligand-binding domain (Homo sapiens, UniProt P10828); experiment: TRb-bla agonist mammalian one-hybrid beta-lactamase assay (TOX21_TRB_BLA_Agonist_Followup_ratio, aeid 2236); type: cell-based; parameters: host or cells: GeneBLAzer UAS-bla HEK 293T; settings: for AC50: HEK 293T one-hybrid, agonist mode, read-out: TRb-bla-Ag AC50; for TRb-bla hitc: hit call from tcpl, agonist; for Emax: read-out: EMax (% of Control) trb-bla-agonist-followup-1
T2 sequence (P10828 217-461 limits assumed): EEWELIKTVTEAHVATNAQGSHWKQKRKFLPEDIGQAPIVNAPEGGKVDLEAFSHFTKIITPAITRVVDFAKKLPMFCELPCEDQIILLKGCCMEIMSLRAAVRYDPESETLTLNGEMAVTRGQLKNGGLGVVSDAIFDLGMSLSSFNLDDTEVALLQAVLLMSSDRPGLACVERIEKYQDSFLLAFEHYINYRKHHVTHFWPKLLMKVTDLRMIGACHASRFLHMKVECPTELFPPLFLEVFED

[5] = tested on: thyroid hormone receptor (TR); experiment: Classification of TR actives across characterization assays (TR-Ag / RXR-Ag; TR model binary); settings: for Categorization Code: TR agonist characterization; for Classification: TR-Ag = TR agonist, RXR-Ag = RXR agonist
Summary of the method: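 Pharmaceuticals excluded; actives called from GH3-TRE qHTS (agonist, antagonist, viability) on 8,305 chemicals. Confirmation of 84 selected chemicals used GH3-TRE-Ag, mammalian one-hybrid TRβ and RXRα UAS-bla HEK 293T specificity screens, parental HEK293T viability, and two TR:coactivator recruitment assays.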

[6] = biological target: T3, TRα ligand-binding domain (Homo sapiens, UniProt P10827); experiment: TRa-coa LanthaScreen TR-FRET coactivator (SRC-2 peptide) recruitment, agonist (TOX21_TRA_COA_Agonist_Followup_ratio, aeid 2230); type: biochemical; settings: for AC50: cell-free coactivator recruitment, read-out: TRa-coa-Ag AC50; for TRa-coa hitc: hit call from tcpl, agonist; for Emax: read-out: EMax (% of Control) tra-coa-agonist-followup-1
T3 construct: the receptor LBDs expressed as glutathione S-transferase (GST) fusion proteins; purchased
T3 sequence (P10827 163-410 isoform P10827-2 limits assumed, other chains not shown): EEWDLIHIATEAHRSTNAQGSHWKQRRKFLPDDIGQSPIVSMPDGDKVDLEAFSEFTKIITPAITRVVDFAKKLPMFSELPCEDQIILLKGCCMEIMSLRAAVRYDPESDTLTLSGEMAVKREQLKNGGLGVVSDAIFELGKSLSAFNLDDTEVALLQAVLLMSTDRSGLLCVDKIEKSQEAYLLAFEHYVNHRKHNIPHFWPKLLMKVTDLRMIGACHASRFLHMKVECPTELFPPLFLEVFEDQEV

[7] = tested on: thyroid hormone receptor (endogenous TRα and TRβ); experiment: GH3-TRE-Ag-Followup confirmation (TOX21_TR_LUC_GH3_Agonist_Followup, aeid 2226); type: cell-based, rat; settings: for AC50: confirmation, agonist mode, read-out: GH3-TRE-Ag-Followup AC50; for GH3-TRE-Ag-Followup hitc: hit call from tcpl
[8] = biological target: T2, human TRβ ligand-binding domain; experiment: TRb-coa LanthaScreen TR-FRET coactivator (SRC-2 peptide) recruitment, agonist (TOX21_TRB_COA_Agonist_Followup_ratio, aeid 2244); type: biochemical; parameters: host or cells: GeneBLAzer UAS-bla HEK 293T; settings: for AC50: cell-free coactivator recruitment, read-out: TRb-coa-Ag AC50; for TRb-coa hitc: hit call from tcpl, agonist; for Emax: read-out: EMax (% of Control) trb-coa-agonist-followup-1
[9] = GH3-TRE-Via cell viability, CellTiter-Fluor (TOX21_TR_LUC_GH3_Antagonist_viability, aeid 805); settings: rat
GH3-TRE-Luc cell line = experiment: as above; settings: for TR_LUC_GH3_Antagonist_viability hitc: hit call from tcpl
in vitro [10] = settings: rat
in vitro [11] = settings: rat, gh3-tre-luc cells, AC50 (uM) modified / 1000
[12] = tested on: thyroid hormone receptor (endogenous TRα and TRβ); experiment: GH3-TRE-Antag primary qHTS, luciferase reporter, antagonist mode with 1 nM T3 (TOX21_TR_LUC_GH3_Antagonist, aeid 804); type: cell-based, rat; settings: antagonist mode, 1 nM T3; read-out: GH3-TRE-Antag AC50
[13] = median over 18 Tox21 cell viability assays (Judson et al. 2016, invitrodb_v2), read-out: Global cytotoxicity AC50 median
[14] = read-out: EMax (% of Control) tr-followup-rxr-bla-agonist-1
[15] = antagonist candidates, inactive samples arbitrarily set to AC50=1,000 μM
[16] = median over 18 Tox21 cell viability assays, inactive set to 1,000, read-out: Global cytotoxicity AC50 median
[17] = percentage of 18 Tox21 viability assays with hitc=1

SMILES	EMax (% of Control) gh3-tre-agonist [1]	GH3-TRE-Ag AC50 hitc [1]	AC50 [2, 13]	GLOBAL CYTOTOXICITY cytotox.number_Active [3]	GLOBAL CYTOTOXICITY cytotox.median [3]	AC50 (human RXRα)	tr-followup-rxr-bla-agonist-1 hitc (human RXRα)	Emax (human RXRα; [14])	AC50 [4]	TRb-bla hitc [4]	Categorization Code [5]	Classification [5]	TRa-coa hitc [6]	Emax [6]	EMax (% of Control) gh3-tre-agonist-followup-1_agonist [7]	GH3-TRE-Ag-Followup hitc [7]	AC50 at 24 h [9]	TR_LUC_GH3_Antagonist_viability hitc (GH3-TRE-Luc cell line)	AC50 [1, 15]	AC50 [12]	other results
CC(C)(C)CC(C)(C)c1ccc(O)c(Cc2ccc(Cl)cc2Cl)c1 [Clofoctol, reference compound]	23.6 % of Control	1	16.7 µM	16	16.7	6.8 µM	1	36.1%	> 92 µM	0	RXR-Ag	RXR-Ag	1	55.5%	34.4 % of Control	1	8.04 µM	1			Emax (human RXRα; read-out: EMax in RXR assay): 36%; AC50 [6]: 8.92 µM; AC50 [7]: 3 µM; AC50 [8]: 8.93 µM; TRb-coa hitc [8]: 1; Emax [8]: 64.9%
COC(=O)C[C@](O)(CCCC(C)(C)O)C(=O)O[C@@H]1C(OC)=C[C@]23CCCN2CCc2cc4c(cc2[C@H]13)OCO4 [Omacetaxine mepesuccinate]																			> 92 µM	0.029 µM	AC50 [2]: 0.06 µM; Active in global cytotoxicity assays (%) [3]: 60.0%; AC50 at 24 h (in vitro [10]): 0.057 µM; CC50 at 24 h (in vitro [11]): 0.0816 µM
CCCCCOc1ccc(C2SC(=O)NC2=O)cc1OCC (stereo not drawn) [Risarestat, reference compound]																	> 92 µM		> 92 µM		AC50 [2, 16]: 16.4 µM; Active in global cytotoxicity assays (%) [3, 17]: 11.9%; cytotoxicity in GH3 viability assay (GH3-TRE-Luc cell line): lacked cytotoxicity
N[C@@H](Cc1cc(I)c(Oc2cc(I)c(O)c(I)c2)c(I)c1)C(=O)O [Levothyroxine, reference compound]	117.2 % of Control	1	> 92 µM	0	>92	1.36 µM	0	21.2%			TR-Ag	TR-Ag	1	171%	100.3 % of Control	1	> 92 µM	0			AC50 ([1]; primary qHTS, agonist mode, 24 h, top concentration 92 μM): 0.0061 µM
C=C1CC[C@@H]2[C@](C)(CO)[C@H](O)CC[C@@]2(C)[C@@H]1C/C=C1/C(=O)OC[C@H]1O [Andrographolide]																	19.4 µM		> 92 µM	24.6 µM	
CCCc1c(OCCCCc2nnn[nH]2)ccc(C(C)=O)c1O [Tomelukast, reference compound]																	> 92 µM		> 92 µM		AC50 [2, 16]: 14.4 µM; Active in global cytotoxicity assays (%) [3, 17]: 9.1%
Cc1cccc(Nc2ccccc2C(=O)O)c1C [Mefenamic acid]																			> 92 µM	19.5 µM	AC50 [2]: 50.8 µM; Active in global cytotoxicity assays (%) [3]: 4.5%; active rate in Tox21 viability/cytotoxicity assays [3]: 4.5%; AC50 at 24 h (in vitro [10]): > 92 µM; CC50 at 24 h (in vitro [11]): > 50 µM
C[C@]12CC[C@H]3C(=CCc4cc(O)ccc43)[C@@H]1CCC2=O [Equilin, reference compound]	90.8 % of Control	1	> 92 µM	0	>92	0.986 µM	1	61.3%	> 92 µM	0	RXR-Ag	RXR-Ag	0	1.7%	6.3 % of Control	0	85.1 µM	1			Emax [4]: 13.5%; AC50 [6]: > 92 µM; AC50 [7]: > 92 µM; AC50 [8]: > 92 µM; TRb-coa hitc [8]: 0; Emax [8]: -0.4%
CC(C)C[C@H](NC(=O)[C@H](CCc1ccccc1)NC(=O)CN1CCOCC1)C(=O)N[C@@H](Cc1ccccc1)C(=O)N[C@@H](CC(C)C)C(=O)[C@@]1(C)CO1 [Carfilzomib]																			> 92 µM	0.025 µM	AC50 [2]: 0.46 µM; Active in global cytotoxicity assays (%) [3]: 64.4%; active rate in Tox21 viability/cytotoxicity assays [3]: 64%; AC50 at 24 h (in vitro [10]): 0.037 µM
O=C(O)Cc1cc(I)c(Oc2cc(I)c(O)c(I)c2)c(I)c1 [Tetrac, 3,3ʹ,5,5ʹ-tetraiodothyroacetic acid]	113.5 % of Control	1	35.7 µM	5	35.7		1	61.6%	0.0209 µM	1	TR-Ag	TR-Ag	1	153%	123.6 % of Control	1	51.3 µM	1			TR_LUC_GH3_Agonist_EMAX (% Control) ([1]; Table S5): 105.7 % Control; Emax [4]: 204%; AC50 [6]: 0.248 µM; AC50 [7]: 0.006 µM; AC50 [8]: 0.227 µM; TRb-coa hitc [8]: 1; Emax [8]: 122%

— article PMC6792352, “Limited Chemical Structural Diversity Found to Modulate Thyroid Hormone Receptor in the Tox21 Chemical Library” (Environmental Health Perspectives, 2019)
